From patent publication US6573261B2, “Method for treating or preventing psychosomatic and psychoimmunologic disorders” (Merck & Co., Inc., priority 1997, dated 2003)

How the values were obtained:
[1] = system: distress vocalisations in guinea-pig pups; assay: Separation-induced vocalisation assay; format: in vivo, guinea-pigs; conditions: p.o.
Procedure: On test days each pup receives an oral dose or a s.c. or i.p. injection of test compound or vehicle and is then immediately returned to the home cage with its mother and siblings for 30 minutes to 60 minutes (or for up to 4 hours following an oral dose, dependant upon the oral pharmacokinetics of the test compound) before social isolation for 15 minutes as described above. […] Between 6 and 8 animals receive each test compound at each dose tested.

[2] = system: foot tapping in gerbils induced by central injection of an NK1 agonist; assay: Gerbil foot-tapping assay; format: in vivo, Mongolian gerbils; conditions: i.v.
Text: CNS penetrant NK-1 receptor antagonists for use in the present invention can be identified by their ability to inhibit foot tapping in gerbils induced by anxiogenic agents (such as pentagastrin) or central infusion of NK-1 receptor agonists such as GR73632, or caused by aversive stimulation such as foot shock or single housing, based on the method of Rupniak & Williams, Eur. J. Pharmacol., 1994, 265, 179.
Male or female Mongolian gerbils (35-70g) are anaesthetised by inhalation of an isoflurane/oxygen mixture to permit exposure of the jugular vein in order to permit administration of test compounds or vehicle in an injection volume of 5 ml/kg i.v. Alternatively, test compounds may be administered orally or by subcutaneous or intraperitoneal routes. The wound is closed and a second skin incision is made in the midline of the scalp to expose the skull. An anxiogenic agent (e.g. pentagastrin) or a selective NK-1 receptor agonist (e.g. GR73632 (d Ala[L-Pro^9,Me-Leu^10]-substance P-(7-11))) is infused directly into the cerebral ventricles (e.g. 3 pmol in 5 μl i.c.v. depending upon the agent) by vertical insertion of a cuffed 27 gauge needle to a depth of 4.5 mm below bregma. […] The duration and/or intensity of hind foot tapping is then recorded continuously for 5 minutes.

C[C@@H](O[C@H]1OCCN(Cc2n[nH]c(=O)[nH]2)[C@H]1c1ccc(F)cc1)c1cc(C(F)(F)F)cc(C(F)(F)F)c1 [2-(R)-(1-(R)-(3,5-bis(trifiuoromethyl)phenyl)-ethoxy)-3-(S)-(4-fluorophenyl)-4-(3-(5-oxo-1H,4H-1,2,4-triazolo)methyl)-morpholine]
guinea-pig vocalisation (4 hr. pre-treatment): ID50 [1]: ID50 = 0.73 mg/kg p.o.
gerbil foot-tapping (5 mins.): ID50 ([2]; 5 mins.): ID50 = 0.36 mg/kg i.v.
gerbil foot-tapping (24 hrs.): ID50 ([2]; 24 hrs. prior to challenge): ID50 = 0.33 mg/kg i.v.
